Test results as given in patent publication US6589766B1, “Aldol consensations by catalytic antibodies” (The Scripps Research Institute, priority 1997, dated 2003).

Tests used:
[1] = cited from earlier work; for pKa of the amino group: free in aqueous solution / water
[2] = control aldol reactions using lysine or bovine serum albumin instead of the antibodies; assay type: biochemical; conditions: used instead of the antibodies
Description: For ease of comparison we determined specific rates for these reactions under the following defined conditions: 1 M of donor, 500 mM of aldehyde 4 and 0.4 mol-% of antibody .

[3] = system: aldolase antibodies 38C2 and 33F12; experiment: inhibition of antibody aldolase activity by β-diketones; assay type: biochemical
Description: For ease of comparison we determined specific rates for these reactions under the following defined conditions: 1 M of donor, 500 mM of aldehyde 4 and 0.4 mol-% of antibody . […] A large variety of other ketones were also studied with aldehyde 4 with monitoring of the consumption of 4 and appearance of a new peak tentatively assigned as the β-hydroxyketone product. The antibody catalyzed aldol reactions were inhibited by addition of equimolar amounts of the hapten 1 or 2,4-pentanedione. Further control experiments were carried out using lysine or bovine serum albumin instead of the antibodies. […] Further study of mixed solvent systems may allow conditions to be defined where substrates such as these are accepted by the catalyst. Of the ketones studied, reactions involving hydroxyacetone as the donor were the most efficient.
No background reaction for the overall conversion of cyclopentanone to 35 in the absence of antibody could be observed following extended incubation for 2 months.
The reaction of 3-methyl-2,4-pentanedione was monitored spectrophotometrically by following the absorption of the antibody-enamine complex 3 now at 335 nm. […] Study of the dependence of the rate of enamine formation on pH with 2,4-pentanedione yielded the same pKa.

[4] = amine catalyzed retro-aldolization of 59 in aqueous buffer and n-octanol; assay type: biochemical
From the text: Therefore the second order rate constants for n-butylamine and aminoacetonitrile catalyzed retro-aldolization of 59 where determined in aqueous buffer and n-octanol. […] The pka's of n-butylamine and aminoacetonitrile in water are 10.61 and 5.34 (Hupe, D. J.; Kendall, M. C. R.; Spencer, T. A. J. Am. Chem. Soc. 1972, 94, 1254). […] Antibody 38C2 provides a 106-108 fold enhancement of the efficiency of the retro-aldol reaction of 59 as compared to the non-enzymic amine catalyzed reactions in either aqueous or organic media. […] The effectiveness of the active site amine of 38C2 is also indicated by effective molarities between 560 and 35,000 M depending on the amine and solvent system studied.
The activation energy for this reaction should be […] in nonpolar solvents such as the active site of the antibody and n-octanol since the reaction involves charge dispersal in the transition state. A polar medium would be expected to stabilize the cationic iminium intermediates to a greater extent than the activated complex. (Reichardt, C., in Solvents and Solvents Effects in Organic Chemistry Ebel, H. F., Wentrup-Byne, E., Eds.; New York, N.Y., 1990, 2nd eddition, pp1-511; Heathcock, C. H. Stereoselective Aldol Condensations, in E. Buncel and T. Durst (eds): Comprehensive Carbanion Chemistry. Part B, P. 177ff. (particularly p. 198), Elsevier, Amsterdam 1984).

## NCCCC[C@H](N)C(=O)O [lysine]
[1]
  pKa of the amino group: around 10.5
[2]
  catalysis of the aldol reactions: No catalysis

## CC(=O)CC(C)=O [2,4-pentanedione]
[1]
  pKa of the protons at the 3 position: 8.87
[3]; elimination from 36 to 35
  inhibition of ab 38C2 catalyzed elimination: inhibited
[3]; equimolar amounts
  inhibition of antibody catalyzed aldol reactions: inhibited

## CC(=O)C(C)C(C)=O [3-methyl-2,4-pentanedione]
[1]
  pKa of the protons at the 3 position: 10.65
[3]; stoichiometric reaction forming stable vinylogous amides
  inhibition of aldolase activity: completely inhibiting aldolase activity

## CCCCN [n-butylamine]
[1]
  pKa of the amino group: 10.61
[4]
  catalysis in n-octanol compared to catalysis in aqueous solution: 63 fold

## bovine serum albumin: control protein used instead of the antibodies
[2]
  catalysis of the aldol reactions: No catalysis

## N#CCN [aminoacetonitrile]
[1]
  pKa of the amino group: 5.34
